This note sets out measurements from patent publication US11565998B2, “Succinate prodrug, compositions containing the succinate prodrug and uses thereof” (ABLIVA AB, priority 2019, dated 2023).

Test [1] has as its system human peripheral blood cells. Description: Metformin effect on mitochondrial function and lactate production of human blood cells. The format is cell-based. The text has this: As mentioned above, increased lactate plasma levels are often observed in patients treated with drugs that may have mitochondrial-related side effects.
The subject of test [2] is rotenone-mediated inhibition of complex 1. In words: Pig model of rotenone induced mitochondrial complex 1 dysfunction. The conditions noted are these: rotenone infusion 7.1 mg/hr for 1.5 hours, below quantification. The format is in vivo, Yorkshire landrace hybrid pigs. On the procedure: To study the effect of rotenone-mediated inhibition of complex 1, Yorkshire landrace hybrid pigs were anaesthetised and implanted with venous catheters for simultaneous infusion of rotenone and Compound 1 or vehicle (PBS). Rotenone (7.1 mg/hr) was infused during 1.5 hours. Compound 1 was infused at a constant rate of 2 mg/kg/min over a period of 2.5 hours. The control animal was infused with PBS. Blood samples were taken with 30 min intervals and plasma was separated by centrifugation. Microdialysates were collected by inserting a microdialysis probe into the striatum of the brain and analysed for lactate using an ISCUS instrument (MDialysis). At the end of infusion, the animal was euthanised and terminal blood and organ samples were collected. Plasma and tissue samples were stored frozen and later analysed for succinate in an LC/MS method using a Thermo Vanquish UPLC+Thermo Quantis triple quadrupole MS instrument, an Acquity UPLC HSS C18 (100×2.1 mm, 1.8 μm) column with guard filter and gradient elution; A=0.1% Formic acid, B=Acetonitrile. [13C]-labelled succinate was used as internal standard. Lactate data were expressed as percentage of the baseline value obtained before start of rotenone infusion.

For `CN(C)C(=N)N=C(N)N` [Metformin], the “mitochondrial function at Complex I” value in test [1] (human peripheral blood cells, concentrations relevant for metformin intoxication) is “inhibits mitochondrial function of human peripheral blood cells at Complex I in a time- and dose-dependent fashion”. Besides, in test [1] (intact platelets, over time), the lactate production entry is “significant increase in lactate production”.
Regarding `C=C(C)[C@H]1Cc2c(ccc3c2O[C@@H]2COc4cc(OC)c(OC)cc4[C@@H]2C3=O)O1` [Rotenone], the “tissue concentrations of succinate” value in test [2] is under 2 µM.
